# In the NIST ThermoML archive (doi:10.1016/j.jct.2004.07.031):
# Several values for one entry are separate records, joined by “and”; a condition that tells them apart may be missing. Identical values can stand only once. ± gives the expanded uncertainty stated by the source.
# Experiment: molar heat capacity at constant pressure
# Settings: 101.33 kPa, Crystal, PPMS instrument (Quantum Design)
smiles,measurement,setting,value
O=P([O-])([O-])[O-].[La+3] [lanthanum orthophosphate],molar heat capacity at constant pressure,2.046 K,0.00182 ± 9e-05 J/K/mol
same,molar heat capacity at constant pressure,2.066 K,0.00139 ± 9e-05 J/K/mol
same,molar heat capacity at constant pressure,2.067 K,0.0014 ± 9e-05 J/K/mol
same,molar heat capacity at constant pressure,2.068 K,0.00141 ± 9e-05 J/K/mol
same,molar heat capacity at constant pressure,2.083 K,0.00123 ± 9e-05 J/K/mol
same,molar heat capacity at constant pressure,2.246 K,0.0017 ± 0.00011 J/K/mol
same,molar heat capacity at constant pressure,2.247 K,0.0017 ± 0.00011 J/K/mol and 0.00172 ± 0.00011 J/K/mol
same,molar heat capacity at constant pressure,2.415 K,0.00201 ± 0.00013 J/K/mol
same,molar heat capacity at constant pressure,2.429 K,0.00212 ± 0.00011 J/K/mol
same,molar heat capacity at constant pressure,2.43 K,0.00213 ± 0.00011 J/K/mol
same,molar heat capacity at constant pressure,2.616 K,0.00265 ± 0.00013 J/K/mol
same,molar heat capacity at constant pressure,2.617 K,0.00266 ± 0.00013 J/K/mol
same,molar heat capacity at constant pressure,2.618 K,0.00266 ± 0.00013 J/K/mol
same,molar heat capacity at constant pressure,2.763 K,0.0031 ± 0.00014 J/K/mol
same,molar heat capacity at constant pressure,2.802 K,0.0034 ± 0.00015 J/K/mol
same,molar heat capacity at constant pressure,2.803 K,0.00342 ± 0.00015 J/K/mol
same,molar heat capacity at constant pressure,2.805 K,0.00339 ± 0.00014 J/K/mol
same,molar heat capacity at constant pressure,2.989 K,0.00467 ± 0.00018 J/K/mol
same,molar heat capacity at constant pressure,2.992 K,0.00476 ± 0.00018 J/K/mol
same,molar heat capacity at constant pressure,2.994 K,0.00473 ± 0.00018 J/K/mol
same,molar heat capacity at constant pressure,3 K,0.0053 ± 0.00019 J/K/mol
same,molar heat capacity at constant pressure,3.115 K,0.00524 ± 0.00019 J/K/mol
same,molar heat capacity at constant pressure,3.19 K,0.00601 ± 0.00021 J/K/mol
same,molar heat capacity at constant pressure,3.191 K,0.00593 ± 0.00021 J/K/mol and 0.00603 ± 0.00021 J/K/mol
same,molar heat capacity at constant pressure,3.383 K,0.00728 ± 0.00025 J/K/mol
same,molar heat capacity at constant pressure,3.385 K,0.00731 ± 0.00026 J/K/mol
same,molar heat capacity at constant pressure,3.386 K,0.0073 ± 0.00026 J/K/mol
same,molar heat capacity at constant pressure,3.473 K,0.00765 ± 0.00026 J/K/mol
same,molar heat capacity at constant pressure,3.505 K,0.00809 ± 0.00028 J/K/mol
same,molar heat capacity at constant pressure,3.578 K,0.00852 ± 0.00029 J/K/mol
same,molar heat capacity at constant pressure,3.58 K,0.00853 ± 0.00029 J/K/mol and 0.00852 ± 0.00029 J/K/mol
same,molar heat capacity at constant pressure,3.772 K,0.00994 ± 0.00034 J/K/mol
same,molar heat capacity at constant pressure,3.775 K,0.00998 ± 0.00034 J/K/mol
same,molar heat capacity at constant pressure,3.778 K,0.00998 ± 0.00034 J/K/mol
same,molar heat capacity at constant pressure,3.839 K,0.01034 ± 0.00035 J/K/mol
same,molar heat capacity at constant pressure,3.969 K,0.01147 ± 0.00038 J/K/mol
same,molar heat capacity at constant pressure,3.973 K,0.01149 ± 0.00039 J/K/mol
same,molar heat capacity at constant pressure,3.976 K,0.01146 ± 0.00038 J/K/mol
same,molar heat capacity at constant pressure,4.008 K,0.01178 ± 0.00039 J/K/mol
same,molar heat capacity at constant pressure,4.168 K,0.0131 ± 0.00043 J/K/mol
same,molar heat capacity at constant pressure,4.172 K,0.01315 ± 0.00044 J/K/mol
same,molar heat capacity at constant pressure,4.174 K,0.01314 ± 0.00043 J/K/mol
same,molar heat capacity at constant pressure,4.207 K,0.01339 ± 0.00044 J/K/mol
same,molar heat capacity at constant pressure,4.368 K,0.01481 ± 0.00049 J/K/mol
same,molar heat capacity at constant pressure,4.371 K,0.01487 ± 0.00049 J/K/mol
same,molar heat capacity at constant pressure,4.372 K,0.01494 ± 0.00049 J/K/mol
same,molar heat capacity at constant pressure,4.518 K,0.01632 ± 0.00053 J/K/mol
same,molar heat capacity at constant pressure,4.565 K,0.01686 ± 0.00055 J/K/mol
same,molar heat capacity at constant pressure,4.568 K,0.01687 ± 0.00055 J/K/mol
same,molar heat capacity at constant pressure,4.569 K,0.0169 ± 0.00055 J/K/mol
same,molar heat capacity at constant pressure,4.576 K,0.01697 ± 0.00055 J/K/mol
same,molar heat capacity at constant pressure,4.763 K,0.01882 ± 0.00061 J/K/mol
same,molar heat capacity at constant pressure,4.765 K,0.01903 ± 0.00062 J/K/mol
same,molar heat capacity at constant pressure,4.768 K,0.01911 ± 0.00062 J/K/mol
same,molar heat capacity at constant pressure,4.946 K,0.02113 ± 0.00068 J/K/mol
same,molar heat capacity at constant pressure,4.961 K,0.02146 ± 0.00069 J/K/mol
same,molar heat capacity at constant pressure,4.965 K,0.02154 ± 0.00069 J/K/mol
same,molar heat capacity at constant pressure,4.967 K,0.02153 ± 0.00069 J/K/mol
same,molar heat capacity at constant pressure,5.031 K,0.02216 ± 0.00071 J/K/mol
same,molar heat capacity at constant pressure,5.166 K,0.02384 ± 0.00076 J/K/mol
same,molar heat capacity at constant pressure,5.173 K,0.02394 ± 0.00077 J/K/mol
same,molar heat capacity at constant pressure,5.174 K,0.02375 ± 0.00076 J/K/mol
same,molar heat capacity at constant pressure,5.323 K,0.02601 ± 0.00083 J/K/mol
same,molar heat capacity at constant pressure,5.367 K,0.0265 ± 0.00085 J/K/mol
same,molar heat capacity at constant pressure,5.369 K,0.02666 ± 0.00085 J/K/mol
same,molar heat capacity at constant pressure,5.37 K,0.02686 ± 0.00086 J/K/mol
same,molar heat capacity at constant pressure,5.546 K,0.02914 ± 0.00093 J/K/mol
same,molar heat capacity at constant pressure,5.565 K,0.02951 ± 0.00094 J/K/mol
same,molar heat capacity at constant pressure,5.574 K,0.02974 ± 0.00094 J/K/mol and 0.02916 ± 0.00093 J/K/mol
same,molar heat capacity at constant pressure,5.695 K,0.03139 ± 0.00099 J/K/mol
same,molar heat capacity at constant pressure,5.77 K,0.03276 ± 0.001 J/K/mol
same,molar heat capacity at constant pressure,5.771 K,0.03277 ± 0.001 J/K/mol
same,molar heat capacity at constant pressure,5.774 K,0.03288 ± 0.001 J/K/mol
same,molar heat capacity at constant pressure,5.965 K,0.03647 ± 0.0011 J/K/mol
same,molar heat capacity at constant pressure,5.967 K,0.03583 ± 0.0011 J/K/mol
same,molar heat capacity at constant pressure,5.974 K,0.03623 ± 0.0011 J/K/mol
same,molar heat capacity at constant pressure,6.057 K,0.03765 ± 0.0012 J/K/mol
same,molar heat capacity at constant pressure,6.065 K,0.03776 ± 0.0012 J/K/mol
same,molar heat capacity at constant pressure,6.165 K,0.03972 ± 0.0013 J/K/mol
same,molar heat capacity at constant pressure,6.17 K,0.03972 ± 0.0013 J/K/mol
same,molar heat capacity at constant pressure,6.171 K,0.03961 ± 0.0012 J/K/mol
same,molar heat capacity at constant pressure,6.367 K,0.04348 ± 0.0014 J/K/mol
same,molar heat capacity at constant pressure,6.37 K,0.04345 ± 0.0014 J/K/mol
same,molar heat capacity at constant pressure,6.373 K,0.04366 ± 0.0014 J/K/mol
same,molar heat capacity at constant pressure,6.438 K,0.04486 ± 0.0014 J/K/mol
same,molar heat capacity at constant pressure,6.567 K,0.04741 ± 0.0015 J/K/mol
same,molar heat capacity at constant pressure,6.572 K,0.04748 ± 0.0015 J/K/mol
same,molar heat capacity at constant pressure,6.574 K,0.04752 ± 0.0015 J/K/mol and 0.04753 ± 0.0015 J/K/mol
same,molar heat capacity at constant pressure,6.768 K,0.05148 ± 0.0016 J/K/mol
same,molar heat capacity at constant pressure,6.773 K,0.05174 ± 0.0016 J/K/mol
same,molar heat capacity at constant pressure,6.774 K,0.05167 ± 0.0016 J/K/mol
same,molar heat capacity at constant pressure,6.812 K,0.05274 ± 0.0016 J/K/mol
same,molar heat capacity at constant pressure,6.968 K,0.0563 ± 0.0018 J/K/mol
same,molar heat capacity at constant pressure,6.973 K,0.0564 ± 0.0018 J/K/mol
same,molar heat capacity at constant pressure,6.976 K,0.05661 ± 0.0018 J/K/mol
same,molar heat capacity at constant pressure,7.087 K,0.05926 ± 0.0019 J/K/mol
same,molar heat capacity at constant pressure,7.169 K,0.06123 ± 0.0019 J/K/mol
same,molar heat capacity at constant pressure,7.175 K,0.06142 ± 0.0019 J/K/mol
same,molar heat capacity at constant pressure,7.176 K,0.06139 ± 0.0019 J/K/mol
same,molar heat capacity at constant pressure,7.188 K,0.06178 ± 0.0019 J/K/mol
same,molar heat capacity at constant pressure,7.371 K,0.06581 ± 0.0021 J/K/mol
same,molar heat capacity at constant pressure,7.377 K,0.06689 ± 0.0021 J/K/mol
same,molar heat capacity at constant pressure,7.381 K,0.06684 ± 0.0021 J/K/mol
same,molar heat capacity at constant pressure,7.56 K,0.07178 ± 0.0022 J/K/mol
same,molar heat capacity at constant pressure,7.57 K,0.07164 ± 0.0022 J/K/mol
same,molar heat capacity at constant pressure,7.575 K,0.072 ± 0.0022 J/K/mol
same,molar heat capacity at constant pressure,7.579 K,0.07223 ± 0.0022 J/K/mol
same,molar heat capacity at constant pressure,7.604 K,0.07273 ± 0.0023 J/K/mol
same,molar heat capacity at constant pressure,7.774 K,0.07756 ± 0.0024 J/K/mol
same,molar heat capacity at constant pressure,7.778 K,0.07802 ± 0.0024 J/K/mol
same,molar heat capacity at constant pressure,7.779 K,0.07794 ± 0.0024 J/K/mol
same,molar heat capacity at constant pressure,7.937 K,0.08278 ± 0.0026 J/K/mol
same,molar heat capacity at constant pressure,7.975 K,0.08393 ± 0.0026 J/K/mol
same,molar heat capacity at constant pressure,7.98 K,0.08397 ± 0.0026 J/K/mol
same,molar heat capacity at constant pressure,7.983 K,0.08418 ± 0.0026 J/K/mol
same,molar heat capacity at constant pressure,8.119 K,0.08872 ± 0.0027 J/K/mol
same,molar heat capacity at constant pressure,8.176 K,0.09007 ± 0.0028 J/K/mol
same,molar heat capacity at constant pressure,8.182 K,0.09043 ± 0.0028 J/K/mol
same,molar heat capacity at constant pressure,8.184 K,0.09022 ± 0.0028 J/K/mol
same,molar heat capacity at constant pressure,8.313 K,0.09473 ± 0.0029 J/K/mol
same,molar heat capacity at constant pressure,8.378 K,0.09678 ± 0.003 J/K/mol
same,molar heat capacity at constant pressure,8.383 K,0.09686 ± 0.003 J/K/mol
same,molar heat capacity at constant pressure,8.385 K,0.09715 ± 0.003 J/K/mol
same,molar heat capacity at constant pressure,8.584 K,0.1041 ± 0.0032 J/K/mol
same,molar heat capacity at constant pressure,8.589 K,0.1043 ± 0.0032 J/K/mol
same,molar heat capacity at constant pressure,8.592 K,0.1046 ± 0.0032 J/K/mol
same,molar heat capacity at constant pressure,8.642 K,0.1065 ± 0.0033 J/K/mol
same,molar heat capacity at constant pressure,8.696 K,0.1085 ± 0.0033 J/K/mol
same,molar heat capacity at constant pressure,8.785 K,0.1119 ± 0.0034 J/K/mol
same,molar heat capacity at constant pressure,8.792 K,0.1125 ± 0.0035 J/K/mol
same,molar heat capacity at constant pressure,8.794 K,0.1122 ± 0.0035 J/K/mol
same,molar heat capacity at constant pressure,8.987 K,0.1198 ± 0.0037 J/K/mol
same,molar heat capacity at constant pressure,8.993 K,0.1201 ± 0.0037 J/K/mol
same,molar heat capacity at constant pressure,8.996 K,0.1202 ± 0.0037 J/K/mol
same,molar heat capacity at constant pressure,9.07 K,0.1232 ± 0.0038 J/K/mol
same,molar heat capacity at constant pressure,9.158 K,0.127 ± 0.0039 J/K/mol
same,molar heat capacity at constant pressure,9.188 K,0.1284 ± 0.0039 J/K/mol
same,molar heat capacity at constant pressure,9.196 K,0.131 ± 0.004 J/K/mol and 0.1286 ± 0.004 J/K/mol
same,molar heat capacity at constant pressure,9.198 K,0.1286 ± 0.004 J/K/mol
same,molar heat capacity at constant pressure,9.393 K,0.1371 ± 0.0042 J/K/mol
same,molar heat capacity at constant pressure,9.398 K,0.1378 ± 0.0042 J/K/mol
same,molar heat capacity at constant pressure,9.4 K,0.1349 ± 0.0041 J/K/mol
same,molar heat capacity at constant pressure,9.447 K,0.1398 ± 0.0043 J/K/mol
same,molar heat capacity at constant pressure,9.586 K,0.1462 ± 0.0045 J/K/mol
same,molar heat capacity at constant pressure,9.598 K,0.1469 ± 0.0045 J/K/mol
same,molar heat capacity at constant pressure,9.602 K,0.1471 ± 0.0045 J/K/mol
same,molar heat capacity at constant pressure,9.675 K,0.1505 ± 0.0046 J/K/mol
same,molar heat capacity at constant pressure,9.792 K,0.1565 ± 0.0048 J/K/mol
same,molar heat capacity at constant pressure,9.8 K,0.1568 ± 0.0048 J/K/mol
same,molar heat capacity at constant pressure,9.805 K,0.157 ± 0.0048 J/K/mol
same,molar heat capacity at constant pressure,9.822 K,0.1578 ± 0.0049 J/K/mol
